Source: US20020137929A1, “1 - (3-heterocyclylphenyl) isothiourea, -isourea, -guanidine and -amidine herbicidal agents” (Intellectual Property Department, BASF Aktiengesellschaft, priority 1998, published 2002)

Experiments:
[1] = test system: GLXMAW (Soybean, Williams); experiment: Postemergence herbicidal evaluation; format: in vivo, Glycine max, (L.) Merr. cv Williams
Summary of the method: (§1)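 Compound is applied as a foliar spray to seedlings about two weeks old, formulated in equal parts acetone and water with 0.5% TWEEN 20 and delivered at 40 psi to give about 0.0156–0.500 kg per hectare. Injury is rated visually 0–9 after four to five weeks.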

[2] = test system: ORYSAT (Rice, Tebonnet); experiment: Postemergence herbicidal evaluation; format: in vivo, Oryza sativa, (L.) Tebonnet
Summary of the method: as §1

[3] = test system: GALAP (Galium); experiment: Preemergence herbicidal evaluation; format: in vivo, Galium aparine; details: rated 4-5 weeks after treatment
Summary of the method: (§2)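 Scores use a 0–9 visual scale covering stand, vigor, malformation, size and chlorosis relative to controls, rated four to five weeks after treatment. Before emergence, soil-planted seeds were sprayed with compound in aqueous acetone at roughly 0.0156–0.500 kg/ha and held in the greenhouse.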

[4] = test system: AMBEL (Ragweed, Common); experiment: Postemergence herbicidal evaluation; format: in vivo, Ambrosia artemisifolia
Summary of the method: as §1

[5] = test system: GALAP (Galium); experiment: Postemergence herbicidal evaluation; format: in vivo, Galium aparine
Summary of the method: as §1

[6] = test system: CHEAL (Lambsquarters, Common); experiment: Postemergence herbicidal evaluation; format: in vivo, Chenopodium album
Summary of the method: as §1

[7] = test system: CYPIR (Rice Flatsedge); experiment: Preemergence weed control under flooded paddy conditions; format: in vivo, Cyperus iria; details: rated 3-4 weeks after treatment
Summary of the method: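 First, seeds or propagules go into the top 0.5 cm of silt loam; next, water is held 1.5 to 3 cm over the soil; then compound (50/50 acetone/water) is pipetted into it at about 0.0313 to 0.500 kg/ha; finally plants are rated visually 0-9 after three to four weeks.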

[8] = test system: ZEAMX (Corn, Field); experiment: Preemergence herbicidal evaluation; format: in vivo, Zea mays; details: rated 4-5 weeks after treatment
Summary of the method: as §2

[9] = test system: CASOB (Sicklepod); experiment: Preemergence herbicidal evaluation; format: in vivo, Cassia obtusifolia; details: rated 4-5 weeks after treatment
Summary of the method: as §2

[10] = test system: CYPSE (Flatsedge); experiment: Postemergence weed control under flooded paddy conditions; format: in vivo, Cyperus serotinus; details: postemergence weeds, 3-4 weeks after treatment
Text: Results of herbicide evaluation are expressed on a rating scale (0-9). The scale is based upon a visual observation of plant stand, vigor, malformation, size, chlorosis and overall plant appearance as compared with a control.
Plastic containers containing weeds which are 3 to 5 cm tall and rice seedlings at the 1.5 to 2.5 leaf stage are flooded with water. The water is maintained at 1.5 to 3 cm above the soil surface for the duration of the experiment. Test compounds are applied as aqueous/ acetone mixtures 50/50 v/v directly into the flood water to provide the equivalent of about 0.0313 to 0.500 kg/ha of active ingredient. The treated containers are placed on greenhouse benches and cared for in accordance with conventional greenhouse procedures. Three to four weeks after treatment, the test is terminated and each container is examined and herbicidal effect rated according to the rating system provided in Example 37. The compounds evaluated are reported by compound number given in Example 37.

[11] = test system: CYPSE (Flatsedge); experiment: Preemergence weed control under flooded paddy conditions; format: in vivo, Cyperus serotinus; details: rated 3-4 weeks after treatment
Summary of the method: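 Herbicidal effect is scored visually on a 0-9 scale against an untreated control, three to four weeks after compounds are pipetted into the flood water (1.5 to 3 cm deep) over seeds planted in silt loam at 0.5 cm depth. Rates: about 0.0313 to 0.500 kg/ha.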

[12] = test system: ECHCG (Barnyardgrass); experiment: Postemergence herbicidal evaluation; format: in vivo, Echinochloa crus-galli
Summary of the method: as §1

[13] = test system: CASOB (Sicklepod); experiment: Postemergence herbicidal evaluation; format: in vivo, Cassia obtusifolia
Summary of the method: as §1

[14] = test system: SETVI (Foxtail, Green); experiment: Postemergence herbicidal evaluation; format: in vivo, Setaria viridis
Summary of the method: as §1

SMILES: C=CCN1C(=O)C(CC(=O)Nc2ccccc2)SC1=Nc1cc(-n2c(=O)cc(C(F)(F)F)n(C)c2=O)c(F)cc1Cl (centres unmarked) [Compound 44, 3-Allyl-2-{{2-chloro-5-[3,6-dihydro-3-methyl-2,6-dioxo-4-(trifluoromethyl)-1(2H)-pyrimidinyl]-4-fluorophenyl}imino}-4-oxo-5-thiazolidineacetanilide]
- Postemergence herbicidal rating GLXMAW ([1]; Rate 0.0156 kg/ha): 4.5
- Postemergence herbicidal rating GLXMAW ([1]; Rate 0.0313 kg/ha): 5.0
- Postemergence herbicidal rating GLXMAW ([1]; Rate 0.0625 kg/ha): 5.5
- Postemergence herbicidal rating GLXMAW ([1]; Rate 0.1250 kg/ha): 6.0
- Postemergence herbicidal rating ORYSAT ([2]; Rate 0.0156 kg/ha): 3.0
- Postemergence herbicidal rating ORYSAT ([2]; Rate 0.0313 kg/ha): 4.0
- Postemergence herbicidal rating ORYSAT ([2]; Rate 0.0625 kg/ha): 4.0
- Postemergence herbicidal rating ORYSAT ([2]; Rate 0.1250 kg/ha): 4.0
- Preemergence herbicidal rating GALAP ([3]; rate 0.0156 kg/ha): 1.0
- Preemergence herbicidal rating GALAP ([3]; rate 0.0313 kg/ha): 1.0
- Preemergence herbicidal rating GALAP ([3]; rate 0.0625 kg/ha): 1.0
- Preemergence herbicidal rating GALAP ([3]; rate 0.1250 kg/ha): 9.0
- Preemergence herbicidal rating GALAP ([3]; rate 0.2500 kg/ha): 9.0
- Preemergence herbicidal rating GALAP ([3]; rate 0.5000 kg/ha): 9.0
- Postemergence herbicidal rating AMBEL ([4]; Rate 0.0156 kg/ha): 4.0
- Postemergence herbicidal rating AMBEL ([4]; Rate 0.0313 kg/ha): 4.0
- Postemergence herbicidal rating AMBEL ([4]; Rate 0.0625 kg/ha): 7.0
- Postemergence herbicidal rating AMBEL ([4]; Rate 0.1250 kg/ha): 9.0
- Postemergence herbicidal rating GALAP ([5]; Rate 0.0156 kg/ha): 0.0
- Postemergence herbicidal rating GALAP ([5]; Rate 0.0313 kg/ha): 1.0
- Postemergence herbicidal rating GALAP ([5]; Rate 0.0625 kg/ha): 1.0
- Postemergence herbicidal rating GALAP ([5]; Rate 0.1250 kg/ha): 1.0
- Postemergence herbicidal rating CHEAL ([6]; Rate 0.0156 kg/ha): 1.0
- Postemergence herbicidal rating CHEAL ([6]; Rate 0.0313 kg/ha): 4.0
- Postemergence herbicidal rating CHEAL ([6]; Rate 0.0625 kg/ha): 5.0
- Postemergence herbicidal rating CHEAL ([6]; Rate 0.1250 kg/ha): 9.0
- Herbicidal rating CYPIR ([7]; 0.0313 kg/ha): 5.0
- Herbicidal rating CYPIR ([7]; 0.0625 kg/ha): 6.0
- Herbicidal rating CYPIR ([7]; 0.1250 kg/ha): 6.0
- Herbicidal rating CYPIR ([7]; 0.2500 kg/ha): 9.0
- Preemergence herbicidal rating ZEAMX ([8]; rate 0.0156 kg/ha): 0.0
- Preemergence herbicidal rating ZEAMX ([8]; rate 0.0313 kg/ha): 0.0
- Preemergence herbicidal rating ZEAMX ([8]; rate 0.0625 kg/ha): 0.0
- Preemergence herbicidal rating ZEAMX ([8]; rate 0.1250 kg/ha): 1.0
- Preemergence herbicidal rating ZEAMX ([8]; rate 0.2500 kg/ha): 0.0
- Preemergence herbicidal rating ZEAMX ([8]; rate 0.5000 kg/ha): 0.0
- Preemergence herbicidal rating CASOB ([9]; rate 0.0156 kg/ha): 0.0
- Preemergence herbicidal rating CASOB ([9]; rate 0.0313 kg/ha): 0.0
- Preemergence herbicidal rating CASOB ([9]; rate 0.0625 kg/ha): 0.0
- Preemergence herbicidal rating CASOB ([9]; rate 0.1250 kg/ha): 1.0
- Preemergence herbicidal rating CASOB ([9]; rate 0.2500 kg/ha): 0.0
- Preemergence herbicidal rating CASOB ([9]; rate 0.5000 kg/ha): 1.0
- Herbicidal rating CYPSE ([10]; rate 0.0313 kg/ha): 0.0
- Herbicidal rating CYPSE ([10]; rate 0.0625 kg/ha): 0.0
- Herbicidal rating CYPSE ([10]; rate 0.1250 kg/ha): 0.0
- Herbicidal rating CYPSE ([10]; rate 0.2500 kg/ha): 0.0
- Herbicidal rating CYPSE ([11]; 0.0313 kg/ha): 0.0
- Herbicidal rating CYPSE ([11]; 0.0625 kg/ha): 0.0
- Herbicidal rating CYPSE ([11]; 0.1250 kg/ha): 0.0
- Herbicidal rating CYPSE ([11]; 0.2500 kg/ha): 0.0
- Postemergence herbicidal rating ECHCG ([12]; Rate 0.0156 kg/ha): 0.0
- Postemergence herbicidal rating ECHCG ([12]; Rate 0.0313 kg/ha): 1.0
- Postemergence herbicidal rating ECHCG ([12]; Rate 0.0625 kg/ha): 2.0
- Postemergence herbicidal rating ECHCG ([12]; Rate 0.1250 kg/ha): 1.0
- Postemergence herbicidal rating CASOB ([13]; Rate 0.0156 kg/ha): 0.0
- Postemergence herbicidal rating CASOB ([13]; Rate 0.0313 kg/ha): 0.0
- Postemergence herbicidal rating CASOB ([13]; Rate 0.0625 kg/ha): 2.0
- Postemergence herbicidal rating CASOB ([13]; Rate 0.1250 kg/ha): 2.0
- Postemergence herbicidal rating SETVI ([14]; Rate 0.0156 kg/ha): 0.0
- Postemergence herbicidal rating SETVI ([14]; Rate 0.0313 kg/ha): 0.0
- Postemergence herbicidal rating SETVI ([14]; Rate 0.0625 kg/ha): 2.0
- Postemergence herbicidal rating SETVI ([14]; Rate 0.1250 kg/ha): 2.0
